Results: US20240368170A1, “CINNOLINE COMPOUNDS AND USES THEREOF” (Genentech, Inc., priority 2018, published 2024)

system: primary human pan T cells; experiment: Human T-cell IL2 Induction Assay; format: cell-based; settings: assayed concentration 2.78 μM; anti-CD3/anti-CD28 stimulation
Protocol: Example B3: Human T-cell IL2 Induction Assay
Assay Principle: Anti-CD3 and anti-CD28 activates TCR signaling in primary human pan T cells leading to IL-2 promoter induction. Secreted IL-2 in cell culture supernatant is detected by electrochemiluminescence using a capture antibody against IL-2 and an anti-IL-2 antibody labeled with SULFO-tag. Also see www.mesoscale.com for additional electrochemiluminescence technology information.
Assay Procedure: Incubate primary human pan T cells with varying concentrations of test compounds for 30 minutes in a humidified incubator at 37° C. and 5% CO2. Transfer cells to a plate pre-coated with a fixed concentration of anti-human CD3 (determined separately for each donor lot) and add soluble anti-human CD28 (final concentration=1 μg/ml). Stimulate cells in a humidified incubator at 37° C. and 5% CO2 for 4 hours. Transfer 25 μl of supernatant to a MSD single spot plate pre-coated with an anti-human IL-2 antibody. Incubate MSD plate overnight at 4° C. with gentle shaking. Wash MSD plate 4× with wash buffer. […] Wash MSD plate 4× with wash buffer and add 150 μl 2×MSD read buffer. Read on an MSD instrument. […]
Exemplary compounds of Formula (I) were tested in the human T-cell IL-2 induction assays. The % increase measured for IL-2 in cells treated by the test compounds relative to untreated cells are provided in Table B2 for certain compounds.

Row | Structure (SMILES) | % IL-2 increase relative to untreated cells [%]
1 | Cc1c(N)cncc1-c1cc(N)c2nnc(NC(=O)[C@@H]3C[C@H]3C#N)cc2c1 (single isomer, unassigned) [Compound 23a] | 538

same assay, conditions: assayed concentration 8.33 μM; anti-CD3/anti-CD28 stimulation

Row | Structure (SMILES) | % IL-2 increase relative to untreated cells [%]
2 | Cc1ccncc1-c1cc(N)c2nnc(NC(=O)C3CC3)cc2c1 [Compound 25, N-(8-Amino-6-(4-methylpyridin-3-yl)cinnolin-3-yl)cyclopropanecarboxamide] | 192

target: HPK full length, T165E S171E (Homo sapiens (Human), UniProt Q92918, S171E/T165E); experiment: HPK1-FL HTRF Enzymatic Assay ("HTRF"); format: biochemical; settings: H = HTRF; ATP 1 mM
Sequence (Q92918 whole entry T165E/S171E): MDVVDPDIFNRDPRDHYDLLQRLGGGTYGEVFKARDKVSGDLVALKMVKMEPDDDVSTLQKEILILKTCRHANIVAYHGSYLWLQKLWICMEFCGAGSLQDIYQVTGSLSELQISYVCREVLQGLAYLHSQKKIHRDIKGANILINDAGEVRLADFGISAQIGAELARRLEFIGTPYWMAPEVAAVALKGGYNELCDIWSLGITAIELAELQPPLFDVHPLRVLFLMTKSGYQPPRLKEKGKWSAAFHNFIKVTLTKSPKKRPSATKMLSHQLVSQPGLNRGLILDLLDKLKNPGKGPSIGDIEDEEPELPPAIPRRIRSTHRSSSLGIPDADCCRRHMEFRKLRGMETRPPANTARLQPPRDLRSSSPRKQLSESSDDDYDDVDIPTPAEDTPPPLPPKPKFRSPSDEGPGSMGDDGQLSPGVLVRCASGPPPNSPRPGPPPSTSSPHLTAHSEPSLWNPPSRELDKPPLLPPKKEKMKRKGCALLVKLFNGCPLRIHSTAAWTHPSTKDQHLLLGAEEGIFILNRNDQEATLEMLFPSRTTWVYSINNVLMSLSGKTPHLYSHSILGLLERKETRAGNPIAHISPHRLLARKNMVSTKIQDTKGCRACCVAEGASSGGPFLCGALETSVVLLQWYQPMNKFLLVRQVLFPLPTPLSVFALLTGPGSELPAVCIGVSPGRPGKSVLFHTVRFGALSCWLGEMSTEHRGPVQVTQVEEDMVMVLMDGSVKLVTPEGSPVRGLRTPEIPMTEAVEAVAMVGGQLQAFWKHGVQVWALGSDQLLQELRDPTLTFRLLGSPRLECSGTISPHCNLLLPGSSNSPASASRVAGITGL
Protocol: Example BI: HPK1-FL HTRF Enzymatic Assay (“HTRF”)
HPK-FL enzyme phosphorylates Biotin-SLP-76 substrate in the presence of ATP at 1 mM and varying concentrations of test compound. Product is detected by FRET using Eu-anti-pSLP76 Ab and SA-XL665. Also see www.cisbio.com/HTRF for additional HTRF technology information.
• Assay plate: White ProxiPlate 384 F (PerkinElmer cat #6008289) • Kinase: HPK full length double mutant • Substrate: Biotin-SLP76 • ATP: 100 mM ATP • BSG: 2% BSG • DMSO: DMSO (Sigma cat #34869-100ML) • Reaction Buffer: H2O/50 mM HEPES, pH 7.5/10 mM MgCl2/2 mM TCEP/0.01% Brij-35/0.01% BSG • Detection mix: Eu-anti-pSLP76/SA-XL665 (Cisbio, #610SAXAC)
To a 384 well Proxiplate with 80 nL compound or DMSO spotted on was added 4 μl/well kinase mix. The mixture was preincubated for 30 minutes and then 4 μl/well substrate mix was added. The solution was incubated for 60 min and then 4 μl/well detection mix was added. The solution was incubated for another 60 min. The plates were then loaded onto a Perkin Elmer Envision and the TR-FRET signal was measured at 615 and 665 nm. A ratio of […] was used to calculate the % activity at each concentration of compound.

Row | Ki [nM] | Structure (SMILES)
3 | 40 | Cc1c(N)cncc1-c1ccc2nnc(Nc3cc4n(n3)CC(=O)N(C(C)C)CC4)cc2c1 [Compound 28, 2-((6-(5-Amino-4-methylpyridin-3-yl)cinnolin-3-yl)amino)-6-isopropyl-5,6-dihydro-4H-pyrazolo[1,5-d][1,4]diazepin-7(8H)-one]
4 | 0.098 | Cc1c(N)cncc1-c1cc(N)c2nnc(Nc3cc4n(n3)CC(=O)N(C(C)C)CC4)cc2c1 [Compound 29, 2-((8-Amino-6-(5-amino-4-methylpyridin-3-yl)cinnolin-3-yl)amino)-6-isopropyl-5,6-dihydro-4H-pyrazolo[1,5-d][1,4]diazepin-7(8H)-one]

target: HPK1 (Homo sapiens, UniProt Q92918); experiment: HPK1 Lantha Binding Assay ("Lanth"); settings: L = Lanth
Protocol: Example B2: HPK1 Lantha Binding Assay (“Lanth”)
For the reference compound, the top concentration was 1 mM. To the plate was added 10 μL 2 mM staurosporine in wells J1-P1 and A24-H24. A 11 point 5-fold compound serial dilution was performed using the Bravo liquid handling platform. […] The compound plate was centrifuged at 2500 rpm for 1 min. From the compound plate was transferred 80n1 of the compounds into an assay plate using the Echo liquid handler system. One compound plate makes two assay plates. Each assay plate is sealed and stored in an N2 cabinet.
The following assay concentrations and times were used: 2 nM HPK1, 2 nM Eu-Anti-GST Ab, and 15 nM Tracer222, with 60 min incubation time.
For the binding assay, 4 μL 2×HPK1 and Eu-anti-GST antibody were added to each well of the assay plate using a Multidrop reagent dispenser. The solutions were incubated in a 23 C incubator for 1 h. To each well of the assay plate was added 4 μL 2× Tracer-222 using a Multidrop reagent dispenser. The solutions were again incubated in a 23° C. incubator for 1 h. The results of the assay were read using an Envision plate reader with the following parameters: TR_FRET, 340ex/615 and 665em; […].
Compound Ki was analyzed using Morrison ki fit model in XL-fit
[formula] [formula] • b. Parameters: • E=enzyme concentration • S=Tracer222 concentration, Kd=Tracer222 Kd
All measurements are reported using the same units (nM).
Exemplary compounds were tested in the binding assays.

Row | Ki [nM] | Structure (SMILES)
5 | 600 | N#Cc1ccncc1-c1cc(N)c2nnc(NC(=O)[C@@H]3C[C@@H]3F)cc2c1 (racemic) [Compound 4, (+/−)-cis-N-(8-Amino-6-(4-cyanopyridin-3-yl)cinnolin-3-yl)-2-fluorocyclopropanecarboxamide]
6 | 600 | Nc1cc(C2CC2)cc2cc(NC(=O)[C@@H]3C[C@@H]3F)nnc12 (racemic) [Compound 7, cis-N-(8-Amino-6-cyclopropylcinnolin-3-yl)-2-fluorocyclopropane carboxamide]
7 | 3 | Cc1cnsc1-c1cc(N)c2nnc(NC(=O)[C@@H]3C[C@@H]3F)cc2c1 (racemic) [Compound 15, (+/−)-cis-N-[8-Amino-6-(4-methylisothiazol-5-yl)cinnolin-3-yl]-2-fluoro-cyclopropanecarboxamide]
8 | 14 | Cn1cc(-c2cc(N)c3nnc(NC(=O)[C@@H]4C[C@H]4C#N)cc3c2)cn1 (racemic) [Compound 19, (+/−)-trans-N-(8-Amino-6-(1-methyl-1H-pyrazol-4-yl)cinnolin-3-yl)-2-cyanocyclopropanecarboxamide]
9 | 13 | CCc1ccncc1-c1cc(N)c2nnc(NC(=O)[C@@H]3C[C@H]3C#N)cc2c1 (racemic) [Compound 20, (+/−)-trans-N-(8-Amino-6-(4-ethylpyridin-3-yl)cinnolin-3-yl)-2-cyanocyclopropanecarboxamide]
10 | 4 | CCc1ccncc1-c1cc(N)c2nnc(NC(=O)[C@@H]3C[C@@H]3F)cc2c1 (racemic) [Compound 21, (+/−)-cis-N-(8-Amino-6-(4-ethylpyridin-3-yl)cinnolin-3-yl)-2-fluorocyclopropanecarboxamide]
11 | 31 | Nc1cc(-c2cnccc2C2CC2)cc2cc(NC(=O)[C@@H]3C[C@@H]3F)nnc12 (racemic) [Compound 22, (+/−)-cis-N-(8-Amino-6-(4-cyclopropylpyridin-3-yl)cinnolin-3-yl)-2-fluorocyclopropanecarboxamide]
12 | 0.7 | Cc1c(N)cncc1-c1cc(N)c2nnc(NC(=O)[C@@H]3C[C@H]3C#N)cc2c1 (single isomer, unassigned) [Compound 23a]
13 | 4 | Cc1c(N)cncc1-c1cc(N)c2nnc(NC(=O)[C@H]3C[C@@H]3C#N)cc2c1 (single isomer, unassigned) [Compound 23b]
14 | 58 | COc1ccncc1-c1cc(N)c2nnc(NC(=O)[C@@H]3C[C@@H]3F)cc2c1 [Compound 2a, (1S,2S)—N-(8-Amino-6-(4-methoxypyridin-3-yl)cinnolin-3-yl)-2-fluorocyclopropanecarboxamide]
15 | 15 | Cc1cc(N)ncc1-c1cc(N)c2nnc(NC(=O)[C@@H]3C[C@@H]3F)cc2c1 [Compound 5a, (1S,2S)—N-(8-Amino-6-(6-amino-4-methylpyridin-3-yl)cinnolin-3-yl)-2-fluorocyclopropanecarboxamide]
16 | 440 | CCc1cc(N)c2nnc(NC(=O)[C@@H]3C[C@@H]3F)cc2c1 [Compound 6a, (1S,2S)-N-(8-Amino-6-ethylcinnolin-3-yl)-2-fluorocyclopropanecarboxamide]
17 | 28 | CC(C)OC(=O)Nc1cc2cc(-c3cnn(C)c3)cc(N)c2nn1 [Compound 9, Isopropyl N-[8-amino-6-(1-methylpyrazol-4-yl)cinnolin-3-yl]carbamate]
18 | 65 | Cn1cc(-c2cc(N)c3nnc(NC(=O)N4CCCC4)cc3c2)cn1 [Compound 10, N-[8-Amino-6-(1-methylpyrazol-4-yl)cinnolin-3-yl]pyrrolidine-1-carboxamide]
19 | 8 | CCc1ccncc1-c1cc(N)c2nnc(NC(=O)NC(C)C)cc2c1 [Compound 11, 1-[8-Amino-6-(4-ethyl-3-pyridyl)cinnolin-3-yl]-3-isopropyl-urea]
20 | 53 | Cc1cnccc1-c1cc(N)c2nnc(NC(=O)[C@@H]3C[C@@H]3F)cc2c1 [Compound 17a, (1S,2S)—N-(8-Amino-6-(3-methylpyridin-4-yl)cinnolin-3-yl)-2-fluorocyclopropanecarboxamide]
21 | 15 | Cn1cc(-c2cc(N)c3nnc(NC(=O)[C@@H]4C[C@@H]4F)cc3c2)cn1 [Compound 18a, (1S,2S)—N-(8-Amino-6-(1-methyl-1H-pyrazol-4-yl)cinnolin-3-yl)-2-fluorocyclopropanecarboxamide]
22 | 260 | Cc1ccncc1-c1cc(C)c2nnc(NC(=O)C3CC3)cc2c1 [Compound 24, N-(8-Methyl-6-(4-methylpyridin-3-yl)cinnolin-3-yl)cyclopropanecarboxamide]
23 | 1.9 | Cc1ccncc1-c1cc(N)c2nnc(NC(=O)C3CC3)cc2c1 [Compound 25, N-(8-Amino-6-(4-methylpyridin-3-yl)cinnolin-3-yl)cyclopropanecarboxamide]
24 | > 1000 | Cc1ccncc1-c1cc(Cl)c2nnc(NC(=O)C3CC3)cc2c1 [Compound 26, N-(8-Chloro-6-(4-methylpyridin-3-yl)cinnolin-3-yl)cyclopropanecarboxamide]
25 | 510 | Cc1ccncc1-c1ccc2nnc(NC(=O)C3CC3)cc2c1 [Compound 27, N-(6-(4-Methylpyridin-3-yl)cinnolin-3-yl)cyclopropanecarboxamide]
